The test system of series [1] is cancer therapy cardiotoxicity. The conditions noted are these: in vivo; cited from earlier work.
Series [2] has as its system infarct size in STEMI patients. The conditions noted are these: cited from earlier work; for infarct size / effect in patients: clinical trials, administered prior to PPCI.
The subject of a further series is I/R injury. The conditions noted are these: in vivo; cited from earlier work.
Series [3] relates to myocardial infarction model in mice. As to the kind of experiment: In vivo myocardial infarction (ischemia/reperfusion) model in mice, infarct size. The conditions noted are these: 24 h reperfusion; for effect on infarct size (in words): given 5 min before reperfusion. The protocol: (§1) In vivo myocardial infarction model in mice. […] Sodium chloride injection (50 μl) served as control treatment.
Infarct size measurement. For analysis of infarct size, mice were euthanized after 24 hours of reperfusion; hearts were excised and perfused with PBS over 5 min. After perfusion, the LCA was re-ligated in the same location as explicated before. Evans blue dye (1 ml of a 1% solution) was injected into the aorta and coronary arteries for delineation of the ischemic AAR from the non-ischemic zone. The tissue was wrapped in a clear food wrap and stored for one hour in a −20° C. freezer. The heart was then serially sectioned perpendicularly to the long axis in 1 mm slices, and each slice was weighed. The sections were incubated in 1% TTC for 5 min at 37° C. for demarcation of the viable and non-viable myocardium within the risk zone. Infarction, AAR, and non-ischemic left ventricle were assessed with computer-assisted planimetry by an observer blinded to sample identity. The size of the myocardial infarction was expressed as a percentage of the AAR.

The test system of series [4] is BNIP3 and BAX interaction with mitochondria. The series can be described thus: Mechanistic read-outs in the area at risk of mouse hearts after vessel occlusion and reperfusion. In kind it is in vivo, mice. The conditions noted are these: for BNIP3 (and BAX) translocation to / interaction with mitochondria: after 10 min of reperfusion, peptide 5 min before reperfusion. The procedure:
as §1
Immunoblotting. Tissue and human CM cells were lysed in a RIPS buffer (50 mM Tris-HCl, 150 mM NaCl, 0.5 mM EDTA, 1% NP-40 and protease- and phosphatase inhibitor, pH 7.4). Isolated mitochondria were lysed in a Mito-lyse buffer (200 mM sucrose, 10 mM HEPES, 1 mM EGTA, 1% Triton-X100 and protease- and phosphatase inhibitor, pH 7.4). The lysates were cleared by centrifugation (20.000×g, 15 min, 4° C.). Protein concentrations in supernatant were measured using DC Protein Assay (Bio-Rad). Samples were diluted into 4×LDS sample buffer and 10× Reducing Agent (Invitrogen) and were prepared for SDS-PAGE by heating to 95° C. for 5 min. Equivalent amounts of protein were separated using 4-12% Bis-Tris Gels (Invitrogen), transferred on to nitrocellulose and immunoblotted with primary antibodies. The used secondary antibodies were horseradish peroxidise conjugated goat anti-mouse or anti-rabbit IgG (Invitrogen). Immunoblotting was detected by ECL (Thermo Scientific) and imaged on an Imager 600 (Amersham).
Immunoprecipitation. Immunoprecipitation were performed using protein G-coupled Dynabeads (Invitrogen). 500 μg lysed proteins were incubated with 2 μg antibody over night at 4° C. with shaking in PBS buffer containing 1 mM DTT, 0.005% Brij35 and protease-phosphatase inhibitors. Next day 20 μl Dynabeads were added and the solution was incubated again for 1 h. The precipitated immune complex was washed 2 times and then resuspended in eluation buffer containing LDS-Sample Buffer (1:4) und Reducing Agent (1:10) (Invitrogen) in PBS and heated for 5 min at 95° C. After removal of the Dynabeads the Eluate were analysed via immunoblotting.
Caspase-3 activity was measured using the Caspase 3 Assay Kit from Abcam (#ab39401). Murine hearts were harvested after 30 min ischemia and 4 h reperfusion, area at risk was isolated, lysed in containing buffer and the assay was performed according to manufacturer's instructions.
(§2) Swelling Assay. Mitochondrial swelling was measured by light scattering at 540 nm in a microplate absorbance reader FLUOstar Omega (BMG Labtech) at RT. The final assay volume was 200 μl, containing mitochondria at 0.5 mg/ml in buffer containing 250 mM sucrose, 10 mM HEPES, […], pH 7.4.

Series [5] has as its system human ventricular cardiomyocytes derived from human induced pluripotent stem cells (humanCM). The series can be described thus: In vitro reoxygenation after hypoxia in humanCM. It counts as cell-based. To be noted: 2 h of reoxygenation after hypoxia; for mitochondrial inner membrane depolarization / loss of mitochondrial inner membrane potential: JC-1. The procedure:
Cell culture. Human iPSC-derived ventricular cardiomyocytes (humanCM) were obtained from (axol) and were cultivated according to the manufacture's specification.
To simulate vessel occlusion, cells were incubated in buffer (113 mM NaCl, 4.7 mM KCl, 12 mM HEPES, 1.2 mM MgSO4, 30 mM taurine, 1.3 mM CaCl2), pH 7.4) under 1% O2, 37° C. Reoxygenation was performed in buffer supplemented with 5.5 mM glucose under 21% O2, 37° C.
JC-1 Assay. To analyze mitochondrial inner membrane potential in humanCM cells were stained with 5′,6,6′-tetrachloro-1,1′,3,3′-tetraethylbenzimidazolylcarbocyanin Iodid (JC-1). Cells were incubated with 6 μM JC-1 in media at 37° C. for 30 min. After washing cells with PBS buffer at 37° C. they were fixed with 4% PFA for 15 min at room temperature. DAPI staining was performed and cells were analysed using EVOS FL (life Technologies).

Series [6] concerns myocardial infarction model in swine. As to the kind of experiment: In vivo myocardial infarction model in pigs, infarct size. The conditions noted are these: 60 min LAD occlusion, 4 h of reperfusion, IV 5 min before reperfusion, vs vehicle. From the text: In vivo myocardial infarction model in pigs. Following induction of anesthesia, a small incision was made over the femoral artery and vein; the vessels were isolated. A small opening was made in the artery and a sheath was introduced. In addition, a sheath was placed in the femoral vein or other appropriate vein to allow for emergency drug administration if necessary. A blood sample was taken prior to administration of heparin and was used to establish a baseline Activated Clotting Time (ACT) which was recorded. Subsequently, as directed by the surgeon, heparin (250 to 350 IU/kg) was administered as needed to achieve and maintain an ACT that is two times the level of the baseline ACT. Following the initial bolus of heparin ACT was recorded again and monitored at least every 60 minutes thereafter, until completion of surgery.
An appropriate guide catheter was advanced into the ostium of the left anterior descending artery (LAD) using visual guidance provided by fluoroscopy. Non-ionic contrast was used for all procedures. A balloon catheter was introduced by advancing it through the guide catheter to the left anterior descending (LAD) coronary artery. The balloon was advanced into the coronary arteries through a guide catheter to a suitable place above the 1st diagonal branch of the LAD. […] Incidence supportive drugs and defibrillation were recorded in the study record. […]

For series [7] the following is noted: 37° C. The protocol:
FIG. 8. TAT-BNIP3-8B pharmacokinetics. Fluorescence labelled BNIP3-8B was incubated in human serum (A), plasma (B), and whole blood (C) at 37° C. for indicated time durations and monitored by Western blot. Proteinase K treatment served as control.

The subject of series [8] is isolated adult cardiomyocytes. To be noted: survival after 24 h. The protocol:
FIG. 7. A Uptake of fluorescence labelled TAT-BNIP3-8B in different organs after 5 min of reperfusion post vessel occlusion. TAT-BNIP3-8B was given 5 min before starting reperfusion. B Survival of isolated adult cardiomyocytes treated with TAT-BNIP3-8B and TAT-BNIP3-8C control peptide after 24 h.

Series [9] deals with transient middle cerebral artery occlusion (tMCAO). As to the kind of experiment: Mouse model of focal cerebral reperfusion (tMCAO), brain infarct size. In kind it is in vivo. To be noted: 24 h of reperfusion after 30-min tMCAO, vs vehicle. The procedure:
We subjected mice to 24 h of reperfusion after a 30-min transient middle cerebral artery occlusion (tMCAO). BNIP3-8B treatment immediately post tMCAO markedly reduces the infarct size by 52% (FIG. 12).

The conditions of series [10]: after reperfusion post vessel occlusion, peptide given 5 min before reperfusion.
Description: In vivo myocardial infarction model in mice. Wild-type and Bnip3 deficient (Bnip3^−/−) mice were anesthetized by i.p. injection of ketamine (100 mg/kg) and xylazin (10 mg/kg) and intubated. Mechanical ventilation parameters were set to a tidal volume of 2.1 to 2.5 ml and a respiratory rate of 140 breaths per min using a mouse mini-ventilator. Deep anaesthesia was maintained by adding 2 vol % isoflurane to the ventilation gas. The chest was opened through a lateral thoracotomy (1 cm left lateral incision between the 3rd and 4th ribs). A 6-0 prolene suture was placed around the left coronary artery (LCA) and a piece of soft silicon tubing placed over the artery. Coronary occlusion was achieved by tightening and tying the suture. After 30 min of occlusion, the silicon tubing was removed and the suture left in place. For longer reperfusion times the chest were closed using 4-0 prolene. 2, 6 and 9 nmol (in 50 μl 0.9% sodium chloride) BNIP3 were injected into the left ventricular cavity 5 min before vessel occlusion. Peptides with 20 amino acids (2 nmol/50 μl) and peptides with 8 amino acids (8 nmol/50 μl) in NaCl were injected 5 min before reperfusion. Sodium chloride injection (50 μl) served as control treatment.
Peptides. […] For uptake and binding studies, peptides were labelled with a fluorophore.
Another series deals with HL-1 cells. As to the kind of experiment: Doxorubicin-induced mitochondrial swelling in HL-1 cells (OD540). It counts as cell-based. To be noted: 5 μM Doxorubicin given simultaneously, 30 min. The procedure:
HL-1 cells were cultured in Claycomb medium as per manufacturer's protocol. The cells were treated with 5 μM Doxorubicin and 2 nmol TAT-BNIP3-8B for 30 min.
as §2

The next series has as its target BNIP3 (Mus musculus, UniProt O55003). The series can be described thus: BNIP3/TAT-BNIP3-8B overlay assay and docking simulation. It counts as binding. The conditions noted are these: data not shown. The procedure:
Docking Simulation. Experiments were performed using Autodock Vina^52 and HADDOCK^53. The structure of BAX (pdb-ID: 4S0O) was taken from the Protein Data Bank, whereas the structure of BNIP3 and peptide BNIP3-8B were modelled using Modeller9.15^47. The template structures correspond to PDB codes 2k7w and 2ka1. The created model was energy minimized using NAMD2.9^54 and the CHARMM36 force field.

As for `COc1ccccc1OCCNCC(O)COc1cccc2[nH]c3ccccc3c12` (stereo not shown) [carvedilol], the “prevention of cardiotoxicity / cardiomyopathy in cancer patients” value in [1] was “failed to show a benefit”.
Take `CC(C)CCC[C@@H](C)[C@H]1CC[C@H]2[C@@H]3CC/C(=N\O)[C@](C)(CCCO)[C@H]3CC[C@]12C` [TRO40303]: the “infarct size / effect in patients” value in [2] was “failed to reduce infarct size”. For the same molecule, the “adverse events in patients” value in series [2] (compared with the placebo arm) is “more adverse events”. In addition, the “infarct size in animal / pre-clinical studies” value in the series on I/R injury is “reduce infarct size”.
In the case of “TAT-BNIP3-8C: control peptide: BNIP3-8B with Phe-18 to Ala-18 and His-17 to Ala-17 substitutions (WVELAASN)”, in [3] (wild-type mice), the “effect on infarct size (in words)” value is on record as “does not appreciably affect the infarct size”. Besides, the “BNIP3 (and BAX) translocation to / interaction with mitochondria” value (“BNIP3 … to / interaction with mitochondria” for short) in series [4] is given as “does not”. In [5], the “apoptotic and necrotic cell death” value is given as “not effective”; the “mitochondrial inner membrane depolarization / loss of mitochondrial inner membrane potential” value is reported as “not effective”.
Take elamipretide: in [2], the “infarct size / effect in patients” value is recorded as “failed to reduce infarct size”. Further, the “infarct size in animal / pre-clinical studies” value in the series with I/R injury is “reduce infarct size”.
With “TAT-BNIP3-8B: TAT PTD covalently attached to WVELHFFN (BNIP3 amino acids 13-20 with Ser-19 to Phe-19 substitution, SEQ ID NO: 8)”, the “reduction of myocardial infarct size” value in series [6] was determined as 56%. In addition, in series [7], the “half-life in human serum, plasma and whole blood” value is given as “enables its in vivo inhibitory capacity”. The toxicity in cardiomyocytes entry in [8] is on record as “no signs of overt toxicity”. For the same molecule, the “reduction of infarct size” value in series [3] (wild-type mice, peptide into left ventricle 5 min before reperfusion, vs vehicle) is on record as “up to 40%”. Further, in [4] (5 min of reperfusion, fluorescence-labelled peptide), the “interaction with endogenous BNIP3 / BAX (co-immunoprecipitation)” value is “endogenous BNIP3 and BAX mono, homo- and heterodimers co-immunoprecipitated”. Also, the “down-stream cell death machinery (mitochondrial swelling, BAX activation, cytochrome c release, caspase-3 activity)” value in series [4] (10 min to 4 h of reperfusion) is reported as “inhibition of the down-stream cell death machinery”. The “BNIP3 … to / interaction with mitochondria” value in series [4] was “prevents BNIP3 and BAX translocation to the mitochondria”. Further, the BNIP3/BAX oligomerization entry in series [4] (cytosol of area at risk, 10 minutes reperfusion, blue native-PAGE) is recorded as “strongly inhibited”. For the same molecule, in series [5], the “apoptotic and necrotic cell death” value is “markedly inhibits necrotic and apoptotic cell death”; the “mitochondrial inner membrane depolarization / loss of mitochondrial inner membrane potential” value is listed as “markedly inhibits”. Besides, the “reduction of cerebral infarct size” value in series [9] is 52%. The “uptake / tissue distribution” value in series [10] was “taken up by the heart, spleen and liver and is present in the plasma”. Moreover, the “mitochondrial swelling (OD540)” value in the series with HL-1 cells is “prevents mitochondrial swelling”. In addition, the “binding to BNIP3” value in the series with BNIP3 is given as “binds to BNIP3”.
“TAT-BNIP3-20C: control peptide: TAT PTD attached to amino acids 42-61 of BNIP3 (LDAQHESGRSSSKSSHCDSP)”: the “effect on infarct size (in words)” value in [3] (wild-type mice) is listed as “not effective”. Moreover, in series [4], the “BNIP3 … to / interaction with mitochondria” value is reported as “does not”. Further, in [5], the “apoptotic and necrotic cell death” value is listed as “not effective”; the “translocation of human BNIP3 to mitochondria” value is on record as “not effective”; the “mitochondrial inner membrane depolarization / loss of mitochondrial inner membrane potential” value was “not effective”.

B1: BNIP3: BNIP3 protein restituted to BNIP3 deficient mice (TAT-BNIP3 doses, FIG. 1C) (protein)
chain: MSQSGEENLQGSWVELHFSNGNGSSVPASVSIYNGDMEKILLDAQHESGRSSSKSSHCDSPPRSQTPQDTNRAEIDSHSFGEKNSTLSEEDYIERRREVESILKKNSDWIWDWSSRPENIPPKEFLFKHPKRTATLSMRNTSVMKKGGIFSADFLKVFLPSLLLSHLLAIGLGIYIGRRLTTSTSTF
Regarding B1, the “infarct size after restitution of BNIP3” value in series [3] (BNIP3 deficient (Bnip3−/−) mice) is given as “infarct sizes comparable to wild-type mice in a dose-dependent manner”. In addition, in [4] (BNIP3 deficient mouse hearts, early phase of reperfusion), the “mitochondrial BAX translocation after addition of BNIP3” value is “restored the BAX translocation”.

Values taken from patent US12540166B2, “BNIP3 peptides for treatment of reperfusion injury” (Bimyo GmbH, priority 2019, dated 2026).
